{
  "source": "patent US20070207138A1",
  "about": "“S/O Type Pharmaceutical Preparation and Method for Producing the Same” (ASPION CO., LTD., priority 2004, published 2007)",
  "key": {"[1]": {"test_system": "gastric mucosa", "assay": "Gastric mucosa stimulus test", "experimental": "(§1) Gastric mucosa stimulus test for the S/O type complex suspension obtained in Production example 1 was carried out. Specifically, according to the method disclosed by Tsurumi et al. (Folia Pharmacol. Japan, 69, pp.319-334 (1973)), five male Wistar rats having an average body weight of 140 g were fasted for 18 hours in advance, and were administered so that the dose amount of DFNa was 50 mg/kg body weight by means of an intrastomach catheter for rat. After 3.5 hours, the rats were sacrificed and dissected, and the condition of the gastric mucosa was observed. Also blood collected after 3.5 hours was centrifuged to obtain a plasma sample, and DFNa concentration in the plasma was determined by HPLC."}, "[2]": {"assay": "Plasma DFNa concentration in the gastric mucosa stimulus test", "assay_type": "in vivo, male Wistar rats", "settings": "DFNa 50 mg/kg body weight by intrastomach catheter, blood after 3.5 hours", "experimental": "as §1"}, "[3]": {"assay": "Blood concentration test", "assay_type": "in vivo", "settings": "beagle dog fasted overnight, oral, DFNa 6 mg/kg body weight"}},
  "note": "“And” between values parts separate entries of the source, which are not always exact repeats. Equal values may be shown once. “Also recorded” adds a separate entry of the source.",
  "data": [
    {"molecule": "O=C(O)Cc1ccccc1Nc1c(Cl)cccc1Cl", "note": "[DFNa solution, diclofenac sodium]", "values": [
      {"measurement": "Condition of gastric mucosa", "setting": "[1]; individual rat, DFNa 50 mg/kg body weight by intrastomach catheter, observed after 3.5 hours", "result": "Dotted bleeding; also recorded: Gastric ulcer"},
      {"measurement": "abnormality in gastric mucosa", "setting": "[1]; rat, DFNa 50 mg/kg body weight", "result": "clear abnormality is observed"},
      {"measurement": "Plasma DFNa concentration, Average", "setting": "[2]; group average, rat", "result": "6.21 ± 2.03"},
      {"measurement": "Plasma DFNa concentration", "setting": "[2]; individual rat", "result": "3.99 and 7.98 and 6.64"},
      {"measurement": "Area under medicine concentration curve", "setting": "[3]", "result": 62800, "unit": "ng·h/mL"},
      {"measurement": "Maximum blood concentration", "setting": "[3]", "result": 26.4, "unit": "µg/mL"},
      {"measurement": "Maximum blood concentration reach time", "setting": "[3]", "result": 1, "unit": "h"},
      {"measurement": "half-life", "setting": "[3]; serum", "result": 58.8, "unit": "min"}
    ]}
  ]
}
